Among the data in US20140128599A1, “BENZOXAZOLE KINASE INHIBITORS AND METHODS OF USE” (Intellikine LLC La Jolla, priority 2008, published 2014) are IC50 values, retold here.

Common to all, as to assay type: biochemical
Assay [1] deals with T1, mTOR (Homo sapiens, UniProt P42345).
T1 construct: purchased Invitrogen
The assay can be described thus: mTOR kinase inhibition assay.
Procedure: The compounds described herein can be tested against recombinant mTOR (Invitrogen) in an assay containing 50 mM HEPES, pH 7.5, 1 mM EGTA, 10 mM MgCl2, 2.5 mM, 0.01% Tween, 10 μM ATP (2.5 μCi of μ-32P-ATP), and 3 μg/mL BSA. Rat recombinant PHAS-1/4EBP1 (Calbiochem; 2 mg/mL) is used as a substrate. Reactions are terminated by spotting onto nitrocellulose, which is washed with 1M NaCl/1% phosphoric acid (approximately 6 times, 5-10 minutes each). Sheets are dried and the transferred radioactivity quantitated by phosphorimaging.
This assay is a time resolved FRET platform that measures the phosphorylation of GFP labeled 4EBP1 by mTOR kinase. The kinase reaction is performed in a white 384 well microtitre plate. The total reaction volume is 20 ul per well and the reaction buffer composition is 50 mM HEPES pH7.5, 0.01% Polysorbate 20, 1 mM EGTA, 10 mM MnCl2, and 2 mM DTT. In the first step, each well receives 2 ul of test compound in 20% dimethylsulphoxide resulting in a 2% DMSO final concentration. Next, 8 ul of mTOR diluted in reaction buffer is added per well for a 60 ng/ml final concentration. To start the reaction, 10 ul of an ATP/GFP-4EBP1 mixture (diluted in reaction buffer) is added per well for a final concentration of 10 uM ATP and 0.5 uM GFP-4EBP1. The plate is sealed and incubated for 1 hour at room temperature. […] The plate is sealed, incubated for 1 hour at room temperature, and then read on a plate reader set up for LanthaScreen™ TR-FRET. Data is analyzed and IC50s are generated using GraphPad Prism 5.

Assay [2] has as its target T2, PI3K α (Homo sapiens, UniProt P42336).
T2 construct: purchased Upstate
The assay is described as follows: PI3K kinase inhibition assay (p110α/p85α).

For assay [3], the target named is T3, PI3K β (Homo sapiens, UniProt P42338).
T3 construct: purchased Upstate
T3 sequence (P42338 whole entry): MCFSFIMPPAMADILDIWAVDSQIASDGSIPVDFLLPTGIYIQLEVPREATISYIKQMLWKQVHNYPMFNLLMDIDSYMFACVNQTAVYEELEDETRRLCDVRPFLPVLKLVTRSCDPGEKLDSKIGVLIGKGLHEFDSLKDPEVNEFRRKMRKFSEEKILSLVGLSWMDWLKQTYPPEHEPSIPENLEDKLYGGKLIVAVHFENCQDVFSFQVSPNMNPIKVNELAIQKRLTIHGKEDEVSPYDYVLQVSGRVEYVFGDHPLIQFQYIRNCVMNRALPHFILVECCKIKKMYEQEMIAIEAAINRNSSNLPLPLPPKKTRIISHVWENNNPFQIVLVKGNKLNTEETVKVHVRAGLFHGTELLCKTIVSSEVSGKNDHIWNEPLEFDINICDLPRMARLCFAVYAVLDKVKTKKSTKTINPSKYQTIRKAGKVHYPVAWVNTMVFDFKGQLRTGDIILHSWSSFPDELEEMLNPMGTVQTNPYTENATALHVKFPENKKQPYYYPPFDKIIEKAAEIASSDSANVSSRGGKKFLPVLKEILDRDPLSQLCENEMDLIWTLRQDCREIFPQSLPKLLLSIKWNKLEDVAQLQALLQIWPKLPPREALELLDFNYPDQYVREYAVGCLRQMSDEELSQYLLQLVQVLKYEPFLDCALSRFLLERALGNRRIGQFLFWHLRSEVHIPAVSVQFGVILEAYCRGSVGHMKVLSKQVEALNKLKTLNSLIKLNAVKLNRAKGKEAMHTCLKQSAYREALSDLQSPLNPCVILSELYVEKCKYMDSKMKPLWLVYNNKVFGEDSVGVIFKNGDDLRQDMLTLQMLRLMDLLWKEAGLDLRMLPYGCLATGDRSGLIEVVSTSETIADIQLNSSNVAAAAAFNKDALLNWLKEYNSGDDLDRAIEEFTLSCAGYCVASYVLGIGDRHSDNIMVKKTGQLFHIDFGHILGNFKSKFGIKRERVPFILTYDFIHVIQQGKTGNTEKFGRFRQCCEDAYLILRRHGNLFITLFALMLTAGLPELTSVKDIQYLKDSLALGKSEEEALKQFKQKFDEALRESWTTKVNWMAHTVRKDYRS
T3 sequence (P27986 whole entry partner): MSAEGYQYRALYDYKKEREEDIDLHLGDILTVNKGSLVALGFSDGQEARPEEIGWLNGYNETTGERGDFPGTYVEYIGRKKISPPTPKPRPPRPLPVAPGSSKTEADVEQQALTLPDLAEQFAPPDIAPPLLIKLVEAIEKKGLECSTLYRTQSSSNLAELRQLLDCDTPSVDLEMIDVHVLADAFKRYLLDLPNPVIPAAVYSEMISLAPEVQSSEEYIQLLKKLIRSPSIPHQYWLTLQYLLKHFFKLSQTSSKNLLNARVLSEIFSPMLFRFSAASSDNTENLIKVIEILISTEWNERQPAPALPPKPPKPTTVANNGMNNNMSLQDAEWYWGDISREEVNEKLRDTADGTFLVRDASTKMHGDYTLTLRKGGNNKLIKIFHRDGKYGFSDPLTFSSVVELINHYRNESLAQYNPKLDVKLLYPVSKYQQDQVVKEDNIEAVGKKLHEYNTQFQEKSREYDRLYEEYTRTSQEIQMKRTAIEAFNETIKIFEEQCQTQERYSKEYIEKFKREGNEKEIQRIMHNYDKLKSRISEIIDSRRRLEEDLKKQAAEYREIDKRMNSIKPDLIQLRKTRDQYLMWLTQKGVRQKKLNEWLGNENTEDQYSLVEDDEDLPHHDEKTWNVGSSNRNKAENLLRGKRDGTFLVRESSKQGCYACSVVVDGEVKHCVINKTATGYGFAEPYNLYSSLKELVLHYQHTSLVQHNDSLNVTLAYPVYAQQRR
The assay is described as follows: PI3K kinase inhibition assay (p110β/p85α).

The target in assay [4] is T4, PI3K γ (Homo sapiens, UniProt P48736).
T4 construct: purchased Sigma
T4 sequence (P48736 whole entry): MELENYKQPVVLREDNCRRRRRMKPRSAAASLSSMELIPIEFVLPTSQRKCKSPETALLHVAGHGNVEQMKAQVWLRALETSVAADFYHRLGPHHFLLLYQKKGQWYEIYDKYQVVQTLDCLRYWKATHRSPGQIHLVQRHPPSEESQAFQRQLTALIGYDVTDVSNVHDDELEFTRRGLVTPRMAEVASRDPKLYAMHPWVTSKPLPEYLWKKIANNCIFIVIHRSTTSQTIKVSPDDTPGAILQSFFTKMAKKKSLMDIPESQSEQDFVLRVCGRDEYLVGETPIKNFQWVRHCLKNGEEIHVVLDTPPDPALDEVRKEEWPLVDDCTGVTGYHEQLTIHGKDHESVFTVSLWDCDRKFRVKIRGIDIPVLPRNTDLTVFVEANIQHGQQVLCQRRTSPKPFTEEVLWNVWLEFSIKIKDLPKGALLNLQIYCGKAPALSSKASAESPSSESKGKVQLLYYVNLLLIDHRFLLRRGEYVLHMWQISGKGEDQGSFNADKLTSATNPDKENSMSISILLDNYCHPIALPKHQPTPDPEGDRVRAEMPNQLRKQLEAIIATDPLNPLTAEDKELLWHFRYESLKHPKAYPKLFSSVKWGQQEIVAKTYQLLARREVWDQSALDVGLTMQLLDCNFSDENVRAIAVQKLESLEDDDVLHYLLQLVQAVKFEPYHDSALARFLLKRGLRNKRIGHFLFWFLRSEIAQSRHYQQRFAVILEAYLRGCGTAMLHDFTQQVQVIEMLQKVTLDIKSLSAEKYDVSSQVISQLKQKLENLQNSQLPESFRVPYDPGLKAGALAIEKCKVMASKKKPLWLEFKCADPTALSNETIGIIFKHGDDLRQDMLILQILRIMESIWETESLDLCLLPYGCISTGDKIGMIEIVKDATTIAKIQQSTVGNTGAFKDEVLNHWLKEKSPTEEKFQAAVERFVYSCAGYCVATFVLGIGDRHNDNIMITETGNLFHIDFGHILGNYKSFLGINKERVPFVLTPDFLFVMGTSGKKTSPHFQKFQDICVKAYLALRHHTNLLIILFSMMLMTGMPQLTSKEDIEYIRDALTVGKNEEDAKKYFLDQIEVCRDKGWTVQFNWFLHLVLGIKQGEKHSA
The assay is described as follows: PI3K kinase inhibition assay (p110γ).
Procedure: IC50 values are measured using either a standard TLC assay for lipid kinase activity (described below) or a high-throughput membrane capture assay. Kinase reactions are performed by preparing a reaction mixture containing kinase, inhibitor (2% DMSO final concentration), buffer (25 mM HEPES, pH 7.4, 10 mM MgCl2), and freshly sonicated phosphatidylinositol (100 μg/ml). Reactions are initiated by the addition of ATP containing 10 μCi of γ-32P-ATP to a final concentration 10 or 100 μM and allowed to proceed for 5 minutes at room temperature. For TLC analysis, reactions are then terminated by the addition of 105 μl 1N HCl followed by 160 μl CHCl3:MeOH (1:1). The biphasic mixture is vortexed, briefly centrifuged, and the organic phase is transferred to a new tube using a gel loading pipette tip precoated with CHCl3. […] The TLC plates are then dried, exposed to a phosphorimager screen (Storm, Amersham), and quantitated.
Briefly, the assay is a time resolved FRET assay that indirectly measures PIP3 product formed by the activity of a PI3-K. The kinase reaction is performed in a microtitre plate (e.g., a 384 well microtitre plate). The total reaction volume is approximately 20 ul per well. In the first step, each well receives 2 ul of test compound in 20% dimethylsulphoxide resulting in a 2% DMSO final concentration. Next, approximately 14.5 ul of a kinase/PIP2 mixture (diluted in 1× reaction buffer) is added per well for a final concentration of 0.25-0.3 ug/ml kinase and 10 uM PIP2. The plate is sealed and incubated for 15 minutes at room temperature. To start the reaction, 3.5 ul of ATP (diluted in 1× reaction buffer) is added per well for a final concentration of 10 uM ATP. The plate is sealed and incubated for 1 hour at room temperature. The reaction is stopped by adding 5 ul of Stop Solution per well and then 5 ul of Detection Mix is added per well. The plate is sealed, incubated for 1 hour at room temperature, and then read on an appropriate plate reader. Data is analyzed and IC50s are generated using GraphPad Prism 5.

Assay [5] addresses T5, PI3K δ (Homo sapiens, UniProt O00329).
T5 construct: purchased Upstate
The assay can be described thus: PI3K kinase inhibition assay (p110δ/p85α).

T2 sequence (P42336 whole entry): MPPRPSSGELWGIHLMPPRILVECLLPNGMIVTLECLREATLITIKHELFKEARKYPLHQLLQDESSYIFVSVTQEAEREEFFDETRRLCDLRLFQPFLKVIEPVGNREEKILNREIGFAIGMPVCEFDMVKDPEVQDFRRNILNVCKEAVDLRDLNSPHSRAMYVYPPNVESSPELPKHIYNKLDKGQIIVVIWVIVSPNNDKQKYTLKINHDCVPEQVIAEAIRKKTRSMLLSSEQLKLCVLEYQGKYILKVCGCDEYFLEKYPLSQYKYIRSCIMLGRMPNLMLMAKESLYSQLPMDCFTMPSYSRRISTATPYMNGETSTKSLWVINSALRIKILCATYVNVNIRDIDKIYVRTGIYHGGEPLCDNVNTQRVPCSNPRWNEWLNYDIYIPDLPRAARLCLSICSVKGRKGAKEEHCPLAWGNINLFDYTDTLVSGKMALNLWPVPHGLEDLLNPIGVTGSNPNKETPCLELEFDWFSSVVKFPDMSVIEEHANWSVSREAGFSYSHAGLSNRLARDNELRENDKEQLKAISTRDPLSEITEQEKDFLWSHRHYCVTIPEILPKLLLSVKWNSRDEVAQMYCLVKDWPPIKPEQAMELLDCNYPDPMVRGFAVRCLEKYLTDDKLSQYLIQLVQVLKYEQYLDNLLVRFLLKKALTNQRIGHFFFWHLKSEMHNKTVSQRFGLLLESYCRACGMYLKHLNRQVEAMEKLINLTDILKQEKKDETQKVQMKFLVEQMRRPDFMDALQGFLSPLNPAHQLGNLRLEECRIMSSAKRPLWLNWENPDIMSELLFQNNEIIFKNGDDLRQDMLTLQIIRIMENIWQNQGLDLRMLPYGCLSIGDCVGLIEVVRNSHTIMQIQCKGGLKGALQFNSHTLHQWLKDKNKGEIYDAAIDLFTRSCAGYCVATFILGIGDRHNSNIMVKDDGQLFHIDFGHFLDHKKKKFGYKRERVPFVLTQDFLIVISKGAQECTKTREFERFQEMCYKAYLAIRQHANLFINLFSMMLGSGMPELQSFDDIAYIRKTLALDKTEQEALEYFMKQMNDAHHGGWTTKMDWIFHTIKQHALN
T2 sequence (P27986 whole entry partner): as the sequence (P27986 whole entry partner) above
T5 sequence (O00329 whole entry): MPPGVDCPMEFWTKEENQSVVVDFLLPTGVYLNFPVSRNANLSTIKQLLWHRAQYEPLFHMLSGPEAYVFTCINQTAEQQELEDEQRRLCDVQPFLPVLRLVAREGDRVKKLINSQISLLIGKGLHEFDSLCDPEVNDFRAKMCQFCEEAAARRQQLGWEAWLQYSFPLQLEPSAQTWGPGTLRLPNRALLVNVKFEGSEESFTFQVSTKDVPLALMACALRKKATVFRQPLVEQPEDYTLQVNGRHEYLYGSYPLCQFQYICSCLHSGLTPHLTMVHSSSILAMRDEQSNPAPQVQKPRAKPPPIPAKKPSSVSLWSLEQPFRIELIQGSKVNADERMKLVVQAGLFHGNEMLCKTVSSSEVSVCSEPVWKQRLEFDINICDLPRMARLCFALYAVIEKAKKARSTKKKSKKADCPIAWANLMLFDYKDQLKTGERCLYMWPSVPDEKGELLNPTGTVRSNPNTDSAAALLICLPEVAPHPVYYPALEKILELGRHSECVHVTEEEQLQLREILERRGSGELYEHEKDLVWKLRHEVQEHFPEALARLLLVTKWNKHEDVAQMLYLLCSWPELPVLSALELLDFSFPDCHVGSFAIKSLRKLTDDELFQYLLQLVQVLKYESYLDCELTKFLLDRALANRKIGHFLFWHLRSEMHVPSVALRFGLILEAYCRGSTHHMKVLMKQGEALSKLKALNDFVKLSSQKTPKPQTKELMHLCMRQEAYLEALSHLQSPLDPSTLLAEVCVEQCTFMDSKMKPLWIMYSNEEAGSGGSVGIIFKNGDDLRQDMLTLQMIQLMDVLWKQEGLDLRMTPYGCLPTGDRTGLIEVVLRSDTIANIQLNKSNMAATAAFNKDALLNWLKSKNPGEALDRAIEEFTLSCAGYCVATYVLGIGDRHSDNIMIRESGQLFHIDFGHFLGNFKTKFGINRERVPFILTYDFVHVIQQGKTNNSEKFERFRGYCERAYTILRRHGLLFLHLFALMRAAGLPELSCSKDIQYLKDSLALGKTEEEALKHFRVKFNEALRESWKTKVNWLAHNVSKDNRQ
T5 sequence (P27986 whole entry partner): as the sequence (P27986 whole entry partner) above

For the compound `CC(=O)Nc1nc2cc(-c3nn(C(C)C)c4ncnc(N)c34)ccc2o1` [compound 2], the IC50 – broadly, the concentration that gives 50% inhibition – was < 0.1 µM in assay [1]; < 10 µM in assay [2]; > 10 µM in assay [3]; < 1 µM in assay [4]; < 1 µM in assay [5].

Consider `CC(=O)Nc1nc2ccc(-c3nn(C(C)C)c4ncnc(N)c34)cc2o1` [compound 3], for which the IC50 in assay [2] is > 10 µM.

Regarding `CC(C)n1nc(-c2ccc3nc(N)oc3c2)c2c(N)ncnc21` [compound 4], the IC50 is < 1 µM in assay [1]; < 10 µM in assay [2]; < 10 µM in assay [3]; < 1 µM in assay [4]; < 1 µM in assay [5].

In the case of `Nc1nc2cc(-c3nn(C4CCOCC4)c4ncnc(N)c34)ccc2o1` [compound 5], the IC50 in assay [1] was < 0.1 µM; in assay [2], < 1 µM; in assay [3], < 10 µM; in assay [4], < 0.1 µM; in assay [5], < 1 µM.

Turning to `Nc1nc2cc(-c3nn(C4CCC(N5CCOCC5)CC4)c4ncnc(N)c34)ccc2o1` (stereo not drawn) [compound 6], the IC50 is > 10 µM in assay [3] and < 1 µM in assay [5].

As to `CC(=O)N1CCC(n2nc(-c3ccc4oc(N)nc4c3)c3c(N)ncnc32)CC1` [compound 7], the IC50 is < 1 µM in assay [2], < 10 µM in assay [3], < 10 µM in assay [4] and < 1 µM in assay [5].

As to `CC(C)n1cc(-c2ccc3oc(N)nc3c2)c2c(N)ncnc21` [compound 8], the IC50 is < 0.1 µM in assay [1]; < 1 µM in assay [2]; > 10 µM in assay [3]; < 1 µM in assay [4]; < 1 µM in assay [5].

For the compound `Nc1nc2cc(-c3cn(C4CCOCC4)c4ncnc(N)c34)ccc2o1` [compound 9], the figures for the IC50 in assay [2] and in assay [3] were < 10 µM and > 10 µM, respectively.

Consider `CC(C)n1nc(-c2ccc3onc(N)c3c2)c2c(N)ncnc21` [compound 10], for which the IC50 in assay [1] is < 10 µM.

Consider `CC(=O)Nc1noc2cc(-c3nn(C(C)C)c4ncnc(N)c34)ccc12` [compound 11], for which the IC50 in assay [1] is < 1 µM.

Consider `CC(C)n1nc(-c2ccc3c(N)noc3c2)c2c(N)ncnc21` [compound 12], for which the IC50 in assay [1] was < 1 µM.

For the compound `CNc1noc2cc(-c3nn(C(C)C)c4ncnc(N)c34)ccc12` [compound 13], the IC50 in assay [1] was < 10 µM; in assay [2] it was < 10 µM; in assay [4] it was < 1 µM; in assay [5], < 1 µM.

As for `CC(C)n1nc(-c2ccc3c(NC4CC4)noc3c2)c2c(N)ncnc21` [compound 14], the IC50 in assay [1], in assay [2] and in assay [5] was < 10 µM throughout.

Regarding `CC(C)n1nc(-c2ccc3onc(NC4CC4)c3c2)c2c(N)ncnc21` [compound 16], the IC50 in assay [1], in assay [2] and in assay [5] was > 10 µM each time.

Consider `Nc1noc2ccc(-c3nn(CC(=O)N4CCOCC4)c4ncnc(N)c34)cc12` [compound 17], for which the IC50 in assay [1], in assay [2], in assay [4] and in assay [5] was > 10 µM throughout.

`COC(=O)Nc1noc2ccc(-c3nn(C(C)C)c4ncnc(N)c34)cc12` [compound 19]: the IC50 in assay [1] is < 10 µM; in assay [3], > 10 µM; in assay [5], > 10 µM.

As for `COC(=O)Nc1noc2cc(-c3nn(C(C)C)c4ncnc(N)c34)ccc12` [compound 20], the IC50 in assay [1] was < 10 µM; in assay [3] it was > 10 µM; in assay [5], < 10 µM.

With `Cc1nc(N)c2c(-c3ccc4oc(N)nc4c3)nn(C(C)C)c2n1` [compound 21], the IC50 is < 1 µM in assay [1]; > 10 µM in assay [2]; > 10 µM in assay [3]; > 10 µM in assay [4]; > 10 µM in assay [5].

As for `CC(CO)n1nc(-c2ccc3oc(N)nc3c2)c2c(N)ncnc21` (stereo not drawn) [compound 23], the IC50 is < 0.1 µM in assay [1]; < 10 µM in assay [2]; > 10 µM in assay [3]; < 10 µM in assay [4]; < 10 µM in assay [5].

Take `Nc1nc2cc(-c3nn(C4CC(=O)C4)c4ncnc(N)c34)ccc2o1` [compound 25]: the IC50 in assay [2] was < 1 µM; in assay [3] it was < 10 µM; in assay [4], < 0.1 µM; in assay [5] it was < 1 µM.

As to `Nc1nc2cc(-c3nn(C4CC(O)C4)c4ncnc(N)c34)ccc2o1` (stereo not drawn) [compound 26], the IC50 in assay [2] and in assay [4] was < 0.1 µM throughout.

`CC(C)(CO)n1nc(-c2ccc3oc(N)nc3c2)c2c(N)ncnc21` [compound 27]: the IC50 was < 10 µM in assay [2], > 10 µM in assay [3], > 10 µM in assay [4] and < 1 µM in assay [5].
